In patent EP0449026A2, “Desoxynojirimycin derivatives, process for their preparation and their use in drugs” (BAYER AG, priority 1990, dated 1991):
In brackets after ≈: the same amount, converted by molar mass.

Each compound was assayed on Visna-Virus (assay: Visna virus test: inhibition of the virus-induced cytopathic effect in infected sheep fibroblast cultures). Details: Visna-maedi virus, Fibroblastenzellen vom Schaf, MOI ca. 0,05, 7 Tage bei 37°C 5% CO₂, concentration at which the cytopathic effect is inhibited by 50%, read microscopically.
Format: cell-based
Text: In Zellkulturen, die mit Visna-Virus infiziert sind, treten 5 bis 10 Tage nach der Infektion ausgeprägte virusinduzierte, zytopathische Effekte auf. Durch Behandlung der infizierten Zellkulturen mit den erfindungsgemäßen Verbindungen konnte das Auftreten dieser zytopathischen Effekte verhindert werden.
Der Visna-Virus-Test wurde nach der Methode von O. Narayan et al., Journal of Infectious Diseases 135, 5, 1977, 800 - 806 durchgeführt. Dazu wurden die erfindungsgemäßen Verbindungen im Kulturmedium in nicht zytotoxischen Konzentrationen in 96er Microtiterplatten verdünnt. Anschließend wurden Fibroblastenzellen vom Schaf (5 x 10⁴ Zellen pro Napf) in Produktionsmedium zu jedem Näpfchen zugeführt. Jedes Näpfchen erhielt dann 50 µl einer Visna-Viruslösung mit einer Titer von ca. […] TCID₅₀ (TCID = tissue culture infectious dosis). Diese Virusdosis entspricht einer MOI (Multiplizität der Infektion) von ca. 0,05.
Unter diesen Infektionsbedingungen resultierte zwischen Tag 5 und Tag 10 in einer Infektionskontrolle ohne Substanz ein virusinduzierter, zytopathischer Effekt. Die infizierten und behandelten Zellen und die Kontrollzellen wurden 7 Tage bei 37°C 5% CO₂ inkubiert.
Bei Auftreten des virusinduzierten zytopathogenen Effektes in der unbehandelten Viruskontrolle wurden die Kulturen mit Formalin fixiert und anschließend mit einer Giemsa-Lösung gefärbt. Die inhibitorische Konzentration (IC₅₀) wurde mikroskopisch als die Konzentration ermittelt, bei der der zytopathische Effekt um 50% gehemmt wurde: im Vergleich zur unbehandelten Viruskontrolle, die 100% Zellzerstörung aufwies.

SMILES	IC50 [µg/mL]
CC=CCN1CC(OC(=O)c2ccccc2)C(OC(=O)c2ccccc2)C(O)C1CO (stereo not drawn) [Beispiel 3, N-Butenyl-2,3-dibenzoyl-desoxynojirimycin]	50 (≈ 118 µM)
CC=CCN1CC(OC(C)=O)C(OC(C)=O)C(O)C1CO (stereo not drawn) [Beispiel 6]	12.5 (≈ 41.5 µM)
CC=CCN1CC(OC(=O)CC(C)C)C(OC(=O)CC(C)C)C(O)C1CO (stereo not drawn) [Beispiel 10]	20 (≈ 51.9 µM)
